Experimental findings from patent publication US4096257A, “Substituted imidazo [1,2-d]-as-triazines” (American Cyanamid Company, priority 1977, dated 1978) are described below.

For the test, the system named is Mouse Skin Phosphodiesterase (cyclic-AMP phosphodiesterase). Kind of test: mouse skin phosphodiesterase (PDE) inhibition test. The class given is biochemical. More on the design: key to Mouse Skin Phosphodiesterase: Active: A compound is considered active if it inhibits more than theophylline, that is, to 50% of control at 1 mM concentration of compound, or to 80% of control of 0.05 mM concentration of compound. The settings on record: for Mouse Skin Phosphodiesterase: hairless mouse epidermal PDE, 3H-cyclic AMP substrate, final concentration of test compounds 10 ug./ml.

As to `CCCc1n[nH]c(=O)c2nccn12` [5-n-propyl-imidazo[1,2-d]-as-triazin-8(7H)-one], the “Mouse Skin Phosphodiesterase” value is given as “Active”.
As to `O=c1[nH]nc(-c2ccccc2)n2ccnc12` [5-phenyl-imidazo[1,2-d]-as-triazin-8(7H)-one], the “Mouse Skin Phosphodiesterase” value is recorded as “Active”.
Turning to `Cn1c(=O)c2[nH]cnc2n(C)c1=O` [theophylline], the “inhibition of skin phosphodiesterase, % of control” value is 80 % of control (0.05 mM concentration of compound) and 50 % of control (1 mM concentration of compound).
